Test results: patent US4173629A, “Antibiotic S 31794/F-1” (Sandoz Ltd., priority 1975, dated 1979)
In brackets after ≈: the same amount, converted by molar mass. *1 amine or outer side, *2 acyl side, *3 side chain or, on linkers, in order; H or OH if unused. Where a SMILES comes first, the peptide text is derived from it. Bridges are numbered along the chain shown (N, C = ends). [ ]: non-standard residue; d: D form. The star is where a group is joined. Orn(4R-OH,5R-OH) = O=C([C@H](C[C@@H](O)[C@@H](O)N[*:3])N[*:1])[*:2]; hTyr(3S-OH,4S-OH) = N[C@H](C(=O)O)[C@H](O)[C@@H](O)c1ccc(O)cc1; Pro(3S-OH,4S-Me) = C[C@H]1CN[C@H](C(=O)O)[C@H]1O; Gln(3R-OH) = NC(=O)C[C@@H](O)[C@H](N)C(=O)O; Hyp = O=C(O)[C@@H]1C[C@@H](O)CN1; Myristoyl = CCCCCCCCCCCCCC(=O)*

Tests used:
[1] = test system: usual gram-positive and gram-negative bacteria; test: activity spectrum, bacteria; format: cell-based
[2] = test system: yeast and fungi, particularly Candida strains; test: activity spectrum, yeast and fungi; format: cell-based
Description: (§1) The MIC (minimum inhibiting concentration) values are obtained in the well known series dilution test. The incubation was effected in a malt extract medium (2%) having a pH of 5.2-5.4 at 27° C. for 48 to 72 hours. The test strains are well known and have been deposited in the fungi collection of the firm Sandoz, Basel, where they are available for examination.

Candida tropicalis CK 4 = test: MIC, series dilution test; format: cell-based; settings: malt extract medium (2%), pH 5.2-5.4, 27° C., 48 to 72 hours
Description: as §1

Microsporum canis = test: MIC, series dilution test; format: cell-based; settings: malt extract medium (2%), pH 5.2-5.4, 27° C., 48 to 72 hours
Description: as §1

Trichophyton quinckeanum = test: MIC, series dilution test; format: cell-based; settings: malt extract medium (2%), pH 5.2-5.4, 27° C., 48 to 72 hours
Description: as §1

Candida albicans = test: MIC, series dilution test; format: cell-based; settings: malt extract medium (2%), pH 5.2-5.4, 27° C., 48 to 72 hours
Description: as §1

[3] = test system: Candida albicans Blast. res.; test: MIC, series dilution test; format: cell-based; settings: malt extract medium (2%), pH 5.2-5.4, 27° C., 48 to 72 hours
Description: as §1

Sporotrichum schenkii = test: MIC, series dilution test; format: cell-based; settings: malt extract medium (2%), pH 5.2-5.4, 27° C., 48 to 72 hours
Description: as §1

Candida albicans 439 = test: MIC, series dilution test; format: cell-based; settings: malt extract medium (2%), pH 5.2-5.4, 27° C., 48 to 72 hours
Description: as §1

Candida tropicalis = test: MIC, series dilution test; format: cell-based; settings: malt extract medium (2%), pH 5.2-5.4, 27° C., 48 to 72 hours
Description: as §1

Candida krusei = test: MIC, series dilution test; format: cell-based; settings: malt extract medium (2%), pH 5.2-5.4, 27° C., 48 to 72 hours
Description: as §1

Blastomyces dermatitidis = test: MIC, series dilution test; format: cell-based; settings: malt extract medium (2%), pH 5.2-5.4, 27° C., 48 to 72 hours
Description: as §1

Curvularia lunata = test: MIC, series dilution test; format: cell-based; settings: malt extract medium (2%), pH 5.2-5.4, 27° C., 48 to 72 hours
Description: as §1

Aspergillus niger = test: MIC, series dilution test; format: cell-based; settings: malt extract medium (2%), pH 5.2-5.4, 27° C., 48 to 72 hours
Description: as §1

[4] = test system: Trichophyton mentagrophytes; test: MIC, series dilution test; format: cell-based; settings: malt extract medium (2%), pH 5.2-5.4, 27° C., 48 to 72 hours
Description: as §1

Candida albicans H 12 = test: MIC, series dilution test; format: cell-based; settings: malt extract medium (2%), pH 5.2-5.4, 27° C., 48 to 72 hours
Description: as §1

Candida albicans 5897 = test: MIC, series dilution test; format: cell-based; settings: malt extract medium (2%), pH 5.2-5.4, 27° C., 48 to 72 hours
Description: as §1

Neurospora crassa = test: MIC, series dilution test; format: cell-based; settings: malt extract medium (2%), pH 5.2-5.4, 27° C., 48 to 72 hours
Description: as §1

Aspergillus fumigatus = test: MIC, series dilution test; format: cell-based; settings: malt extract medium (2%), pH 5.2-5.4, 27° C., 48 to 72 hours
Description: as §1

Stability = format: physicochemical
Solubility = format: physicochemical

## CCCCCCCCCCCCCC(=O)N[C@H]1C[C@@H](O)[C@@H](O)NC(=O)[C@@H]2[C@@H](O)[C@@H](C)CN2C(=O)[C@H]([C@H](O)CC(N)=O)NC(=O)[C@H]([C@H](O)[C@@H](O)c2ccc(O)cc2)NC(=O)[C@@H]2C[C@@H](O)CN2C(=O)[C@H]([C@@H](C)O)NC1=O [S 31794/F-1] (Myristoyl-[Orn(4R-OH,5R-OH)]T[Hyp][hTyr(3S-OH,4S-OH)][Gln(3R-OH)][Pro(3S-OH,4S-Me)]; lactam 1-C)
[1]
  effect against the usual gram-positive and gram-negative bacteria: does not exhibit a significant effect
[2]
  effect against yeast and fungi, particularly against Candida strains: pronounced effect
Candida tropicalis CK 4
  MIC (minimum inhibiting concentration): 0.01 µg/mL (≈ 0.00951 µM)
Microsporum canis
  MIC (minimum inhibiting concentration): 100 µg/mL (≈ 95.1 µM)
Trichophyton quinckeanum
  MIC (minimum inhibiting concentration): > 100 µg/mL
Candida albicans
  MIC (minimum inhibiting concentration): 0.3 µg/mL (≈ 0.285 µM)
[3]
  MIC (minimum inhibiting concentration): 0.03 µg/mL (≈ 0.0285 µM)
Sporotrichum schenkii
  MIC (minimum inhibiting concentration): > 100 µg/mL
Candida albicans 439
  MIC (minimum inhibiting concentration): 0.03 µg/mL (≈ 0.0285 µM)
Candida tropicalis
  MIC (minimum inhibiting concentration): 0.3 µg/mL (≈ 0.285 µM)
Candida krusei
  MIC (minimum inhibiting concentration): 1 µg/mL (≈ 0.951 µM)
Blastomyces dermatitidis
  MIC (minimum inhibiting concentration): 100 µg/mL (≈ 95.1 µM)
Curvularia lunata
  MIC (minimum inhibiting concentration): > 100 µg/mL
Aspergillus niger
  MIC (minimum inhibiting concentration): 100 µg/mL (≈ 95.1 µM)
[4]
  MIC (minimum inhibiting concentration): 32 µg/mL (≈ 30.4 µM)
Candida albicans H 12
  MIC (minimum inhibiting concentration): 0.3 µg/mL (≈ 0.285 µM)
Candida albicans 5897
  MIC (minimum inhibiting concentration): 0.3 µg/mL (≈ 0.285 µM)
Neurospora crassa
  MIC (minimum inhibiting concentration): > 100 µg/mL
Aspergillus fumigatus
  MIC (minimum inhibiting concentration): 32 µg/mL (≈ 30.4 µM)
Stability; alkaline or strong acidic conditions
  Stability: decomposes, losing its anti-fungal activity
Stability; aqueous methanol at pH 3-7.5
  Stability: stable
Solubility; in methanol, ethanol, pyridine and dimethyl sulphoxide
  Solubility: easily soluble
Solubility; in water, chloroform, ethyl acetate, diethyl ether, benzene and hexane
  Solubility: difficulty soluble
